The species named for this test is Canis familiaris. As to the kind of experiment: Compound was tested relaxation of contracted coronary arteries of canine at 5 x 10-e M (p<0.01). The class given is functional, Canis lupus familiaris.

In turn, `O=C(O)CCC/C=C\C/C=C\C=C\C(O)C/C=C\CCCCCO` (stereo unspecified) yielded a Relation of 48%.
